Results on 20 compounds are retold here after patent US9957263B2, “Bromodomain inhibitors” (AbbVie Inc., priority 2013, dated 2018).

The target of one experiment is BRD4 (BDI_K57-E168) (Homo sapiens (Human), UniProt O60885). Briefly: TR-FRET bromodomain binding assay, BRD4 first bromodomain. The conditions noted are these: His-tagged BD1, Alexa647-labeled probe 100 nM. As to the method:
(§1) A time-resolved fluorescence resonance energy transfer (TR-FRET) assay was used to determine the affinities of compounds of the Examples listed in Table 1 for each bromodomain of BRD4. His-tagged first (BD1: amino acids K57-E168) and second (BD2: amino acids E352-E168) bromodomains of BRD4 were expressed and purified. An Alexa647-labeled BET-inhibitor was used as the fluorescent probe in the assay.
(§2) Compound dilution series were prepared in DMSO via a 3-fold serial dilution from 2.5 mM to 42 nM. Compounds were then diluted 6:100 in assay buffer (20 mM Sodium Phosphate, pH 6.0, 50 mM NaCl, 1 mM Ethylenediaminetetraacetic acid disodium salt dihydrate, 0.01% Triton X-100, 1 mM DL-Dithiothreitol) to yield 3× working solutions. Six microliters (μL) of the working solution was then transferred to white, low-volume assay plates (Costar #3673). A 1.5× assay mixture containing His-tagged bromodomain, Europium-conjugated anti-His antibody (Invitrogen PV5596) and the Alexa-647-conjugated probe molecule was also prepared. Twelve μL of this solution were added to the assay plate to reach a final volume of 18 μL. The final concentration of 1× assay buffer contains 2% DMSO, 50 μM-0.85 nM compound, 8 nM His-tagged bromodomain, 1 nM Europium-conjugated anti-His-tag antibody and 100 nM or 30 nM probe (for BDI or BDII, respectively). After a one-hour incubation at room temperature, TR-FRET ratios were determined using an Envision multilabel plate reader (Ex 340, Em […]).
(§3) TR-FRET data were normalized to the means of 24 no-compound controls (“high”) and 8 controls containing 1 μM un-labeled probe (“low”). Percent inhibition was plotted as a function of compound concentration and the data were fit with the 4 parameter logistic equation to obtain IC50s. Inhibition constants (Ki) were calculated from the IC50s, probe Kd and probe concentration. Typical Z′ values were between 0.65 and 0.75. The minimum significant ratio was determined to evaluate assay reproducibility (Eastwood et al., (2006) J Biomol Screen, 11: 253-261). The MSR was determined to be 2.03 for BDI and 1.93 for BDII, and a moving MSR (last six run MSR overtime) for both BDI and BDII was typically <3.

In another experiment the target is BRD4 (BDII_E352-M457) (Homo sapiens (Human), UniProt O60885). Briefly: TR-FRET bromodomain binding assay, BRD4 second bromodomain. The conditions noted are these: His-tagged BD2, Alexa647-labeled probe 30 nM. As to the method:
as §1, §2, §3

`CSCCCN1CCC(Nc2ccc(S(C)(=O)=O)cc2-c2cn(C)c(=O)c3[nH]ccc23)CC1` [Example 86, 6-methyl-4-[2-({1-[3-(methylsulfanyl)propyl]piperidin-4-yl}amino)-5-(methylsulfonyl)phenyl]-1,6-dihydro-7H-pyrrolo[2,3-c]pyridin-7-one]: the Ki was found to be 24 nM at BRD4 (BDI_K57-E168) and 75 nM at BRD4 (BDII_E352-M457).

For `Cn1cc(-c2cc(S(C)(=O)=O)ccc2N[C@H]2CC[C@H](NCc3ccc4ccccc4c3)CC2)c2cc[nH]c2c1=O` [Example 110, 6-methyl-4-[5-(methylsulfonyl)-2-({trans-4-[(naphthalen-2-ylmethyl)amino]cyclohexyl}amino)phenyl]-1,6-dihydro-7H-pyrrolo[2,3-c]pyridin-7-one], the Ki at BRD4 (BDI_K57-E168) turned out to be 1.1 nM; at BRD4 (BDII_E352-M457), 2.2 nM.

In the case of `CCS(=O)(=O)Nc1ccc(Oc2ccc(F)cc2F)c(-c2cn(C)c(=O)c3[nH]c(C#CCOC)cc23)c1` [Example 163, N-{4-(2,4-difluorophenoxy)-3-[2-(3-methoxyprop-1-yn-1-yl)-6-methyl-7-oxo-6,7-dihydro-1H-pyrrolo[2,3-c]pyridin-4-yl]phenyl}ethanesulfonamide], the Ki on BRD4 (BDI_K57-E168) came out at 1.64 nM; at BRD4 (BDII_E352-M457) it was 0.605 nM.

As to `Cn1cc(-c2cc(S(C)(=O)=O)ccc2Oc2cccc(NCCC3CCCC3)c2)c2cc[nH]c2c1=O` [Example 81, 4-[2-{3-[(2-cyclopentylethyl)amino]phenoxy}-5-(methylsulfonyl)phenyl]-6-methyl-1,6-dihydro-7H-pyrrolo[2,3-c]pyridin-7-one], the Ki came out at 35 nM on BRD4 (BDI_K57-E168) and 10 nM at BRD4 (BDII_E352-M457).

Take `CCNC(=O)c1cc2c(-c3ccc(C(=O)N(CCCN4CCOCC4)Cc4ccccc4)cc3Oc3c(C)cccc3C)cn(C)c(=O)c2[nH]1` [Example 161, 4-[4-{benzyl[3-(morpholin-4-yl)propyl]carbamoyl}-2-(2,6-dimethylphenoxy)phenyl]-N-ethyl-6-methyl-7-oxo-6,7-dihydro-1H-pyrrolo[2,3-c]pyridine-2-carboxamide]: the figures for the Ki on BRD4 (BDI_K57-E168) and on BRD4 (BDII_E352-M457) were 1050 nM and 3.16 nM, respectively.

Turning to `Cn1cc(-c2cc(S(C)(=O)=O)ccc2Oc2ccc(F)cc2F)c2cc(CN3CCOCC3c3ccco3)[nH]c2c1=O` (stereo not shown) [Example 127, 4-[2-(2,4-difluorophenoxy)-5-(methylsulfonyl)phenyl]-2-{[3-(furan-2-yl)morpholin-4-yl]methyl}-6-methyl-1,6-dihydro-7H-pyrrolo[2,3-c]pyridin-7-one], the Ki on BRD4 (BDI_K57-E168) was 15.8 nM; on BRD4 (BDII_E352-M457) it was 93.8 nM.

Take `CCNC(=O)c1cc2c(-c3cc(S(=O)(=O)CC)ccc3Oc3c(C)cccc3CN3CCC3=O)cn(C)c(=O)c2[nH]1` [Example 157, N-ethyl-4-[5-(ethylsulfonyl)-2-{2-methyl-6-[(2-oxoazetidin-1-yl)methyl]phenoxy}phenyl]-6-methyl-7-oxo-6,7-dihydro-1H-pyrrolo[2,3-c]pyridine-2-carboxamide]: the Ki at BRD4 (BDI_K57-E168) worked out at 387 nM; on BRD4 (BDII_E352-M457) it was 16.9 nM.

Turning to `Cn1cc(-c2cc(S(C)(=O)=O)ccc2Oc2cccc(NCc3ccc4c(c3)OCCO4)c2)c2cc[nH]c2c1=O` [Example 76, 4-[2-{3-[(2,3-dihydro-1,4-benzodioxin-6-ylmethyl)amino]phenoxy}-5-(methylsulfonyl)phenyl]-6-methyl-1,6-dihydro-7H-pyrrolo[2,3-c]pyridin-7-one], the figures for the Ki on BRD4 (BDI_K57-E168) and at BRD4 (BDII_E352-M457) were 3.3 nM and 1.1 nM, respectively.

Take `CCS(=O)(=O)Nc1cc(-c2cn(C)c(=O)c3[nH]ccc23)c(Oc2ccc(F)cc2F)cc1CN1CCCCC1` [Example 3, N-[4-(2,4-difluorophenoxy)-5-(6-methyl-7-oxo-6,7-dihydro-1H-pyrrolo[2,3-c]pyridin-4-yl)-2-(piperidin-1-ylmethyl)phenyl]ethanesulfonamide]: the Ki at BRD4 (BDI_K57-E168) turned out to be 88 nM; at BRD4 (BDII_E352-M457), 2.8 nM.

Take `Cc1cccc(S(=O)(=O)Nc2cccc(Oc3ccc(S(C)(=O)=O)cc3-c3cn(C)c(=O)c4[nH]ccc34)c2)c1` [Example 50, 3-methyl-N-{3-[2-(6-methyl-7-oxo-6,7-dihydro-1H-pyrrolo[2,3-c]pyridin-4-yl)-4-(methylsulfonyl)phenoxy]phenyl}benzenesulfonamide]: the Ki on BRD4 (BDI_K57-E168) is 3.4 nM; on BRD4 (BDII_E352-M457), 1.2 nM.

For `Cn1cc(-c2cc(S(C)(=O)=O)ccc2Oc2cccc(NS(=O)(=O)c3cccc([N+](=O)[O-])c3)c2)c2cc[nH]c2c1=O` [Example 51, N-{3-[2-(6-methyl-7-oxo-6,7-dihydro-1H-pyrrolo[2,3-c]pyridin-4-yl)-4-(methylsulfonyl)phenoxy]phenyl}-3-nitrobenzenesulfonamide], the Ki was found to be 5 nM on BRD4 (BDI_K57-E168) and 3 nM at BRD4 (BDII_E352-M457).

With `Cc1cc(F)ccc1S(=O)(=O)Nc1cccc(Oc2ccc(S(C)(=O)=O)cc2-c2cn(C)c(=O)c3[nH]ccc23)c1` [Example 52, 4-fluoro-2-methyl-N-{3-[2-(6-methyl-7-oxo-6,7-dihydro-1H-pyrrolo[2,3-c]pyridin-4-yl)-4-(methylsulfonyl)phenoxy]phenyl}benzenesulfonamide], the Ki was found to be 2 nM at BRD4 (BDI_K57-E168) and 1.1 nM on BRD4 (BDII_E352-M457).

With `CCNC(=O)c1cc2c(-c3cc(S(=O)(=O)CC)ccc3Oc3c(C)cccc3CN3CCCCC3)cn(C)c(=O)c2[nH]1` [Example 147, N-ethyl-4-{5-(ethylsulfonyl)-2-[2-methyl-6-(piperidin-1-ylmethyl)phenoxy]phenyl}-6-methyl-7-oxo-6,7-dihydro-1H-pyrrolo[2,3-c]pyridine-2-carboxamide], the values for the Ki on BRD4 (BDI_K57-E168) and at BRD4 (BDII_E352-M457) were 761 nM and 57.5 nM, respectively.

In the case of `Cn1cc(-c2cc(S(C)(=O)=O)ccc2NC2CCN(S(=O)(=O)c3ccccc3)CC2)c2cc[nH]c2c1=O` [Example 84, 6-methyl-4-[5-(methylsulfonyl)-2-{[1-(phenylsulfonyl)piperidin-4-yl]amino}phenyl]-1,6-dihydro-7H-pyrrolo[2,3-c]pyridin-7-one], the figures for the Ki on BRD4 (BDI_K57-E168) and at BRD4 (BDII_E352-M457) were 4.7 nM and 8.9 nM, respectively.

For the compound `Cc1noc(C2CCCN2Cc2cc3c(-c4cc(S(C)(=O)=O)ccc4Oc4ccc(F)cc4F)cn(C)c(=O)c3[nH]2)n1` (stereo not shown) [Example 131, 4-[2-(2,4-difluorophenoxy)-5-(methylsulfonyl)phenyl]-6-methyl-2-{[2-(3-methyl-1,2,4-oxadiazol-5-yl)pyrrolidin-1-yl]methyl}-1,6-dihydro-7H-pyrrolo[2,3-c]pyridin-7-one], the figures for the Ki on BRD4 (BDI_K57-E168) and on BRD4 (BDII_E352-M457) were 49.7 nM and 165 nM, respectively.

As to `CCNC(=O)c1cc2c(-c3cc(S(=O)(=O)CC)ccc3Oc3c(C)cccc3Cn3cccn3)cn(C)c(=O)c2[nH]1` [Example 145, N-ethyl-4-{5-(ethylsulfonyl)-2-[2-methyl-6-(1H-pyrazol-1-ylmethyl)phenoxy]phenyl}-6-methyl-7-oxo-6,7-dihydro-1H-pyrrolo[2,3-c]pyridine-2-carboxamide], the results for the Ki at BRD4 (BDI_K57-E168) and on BRD4 (BDII_E352-M457) were 807 nM and 8.7 nM, respectively.

Regarding `Cn1cc(-c2cc(S(C)(=O)=O)ccc2Oc2cccc(C(=O)NCCN3CCCC3)c2)c2cc[nH]c2c1=O` [Example 35, 3-[2-(6-methyl-7-oxo-6,7-dihydro-1H-pyrrolo[2,3-c]pyridin-4-yl)-4-(methylsulfonyl)phenoxy]-N-[2-(pyrrolidin-1-yl)ethyl]benzamide], the inhibition constant (Ki) on BRD4 (BDI_K57-E168) came out at 3.1 nM; at BRD4 (BDII_E352-M457), 1.9 nM.

On to `COCCNc1cccc(Oc2ccc(S(C)(=O)=O)cc2-c2cn(C)c(=O)c3[nH]ccc23)c1` [Example 64, 4-[2-{3-[(2-methoxyethyl)amino]phenoxy}-5-(methylsulfonyl)phenyl]-6-methyl-1,6-dihydro-7H-pyrrolo[2,3-c]pyridin-7-one], for which the Ki came to 5.2 nM on BRD4 (BDI_K57-E168) and 3.4 nM at BRD4 (BDII_E352-M457).

As for `CC(=O)c1ccc(S(=O)(=O)Nc2cccc(Oc3ccc(S(C)(=O)=O)cc3-c3cn(C)c(=O)c4[nH]ccc34)c2)cc1` [Example 44, 4-acetyl-N-{3-[2-(6-methyl-7-oxo-6,7-dihydro-1H-pyrrolo[2,3-c]pyridin-4-yl)-4-(methylsulfonyl)phenoxy]phenyl}benzenesulfonamide], the Ki on BRD4 (BDI_K57-E168) is 4.9 nM; on BRD4 (BDII_E352-M457), 2.1 nM.

Take `Cn1cc(-c2cc(S(C)(=O)=O)ccc2Oc2cccc(NS(=O)(=O)c3ccc([N+](=O)[O-])cc3)c2)c2cc[nH]c2c1=O` [Example 43, N-{3-[2-(6-methyl-7-oxo-6,7-dihydro-1H-pyrrolo[2,3-c]pyridin-4-yl)-4-(methylsulfonyl)phenoxy]phenyl}-4-nitrobenzenesulfonamide]: the Ki at BRD4 (BDI_K57-E168) was determined as 5 nM; at BRD4 (BDII_E352-M457), 3 nM.
